# Laboratory results from US20050048508A1, “Trehalose receptor and method for detecting trehalose with the same” (KABUSHIKI KAISHA HAYASHIBARA SEIBUTSU KAGAKU KENKYUJO, priority 2002, published 2005).
# Target: T1, T1R1 and T1R2 with G protein α-subunits (α15 and α16/Z chimeric protein) (Mus musculus, UniProt Q925I4+Q99PG6, E350G/G527D/P352R/R175Q)
# T1 construct: expressed in transfected cells; host or cells: 293 cells, RCB 1637 (human embryonic kidney)
# T1 sequence (Q99PG6 20-842 L120P/N244D/D281A/N309Y/P311T/S314P/H418Y): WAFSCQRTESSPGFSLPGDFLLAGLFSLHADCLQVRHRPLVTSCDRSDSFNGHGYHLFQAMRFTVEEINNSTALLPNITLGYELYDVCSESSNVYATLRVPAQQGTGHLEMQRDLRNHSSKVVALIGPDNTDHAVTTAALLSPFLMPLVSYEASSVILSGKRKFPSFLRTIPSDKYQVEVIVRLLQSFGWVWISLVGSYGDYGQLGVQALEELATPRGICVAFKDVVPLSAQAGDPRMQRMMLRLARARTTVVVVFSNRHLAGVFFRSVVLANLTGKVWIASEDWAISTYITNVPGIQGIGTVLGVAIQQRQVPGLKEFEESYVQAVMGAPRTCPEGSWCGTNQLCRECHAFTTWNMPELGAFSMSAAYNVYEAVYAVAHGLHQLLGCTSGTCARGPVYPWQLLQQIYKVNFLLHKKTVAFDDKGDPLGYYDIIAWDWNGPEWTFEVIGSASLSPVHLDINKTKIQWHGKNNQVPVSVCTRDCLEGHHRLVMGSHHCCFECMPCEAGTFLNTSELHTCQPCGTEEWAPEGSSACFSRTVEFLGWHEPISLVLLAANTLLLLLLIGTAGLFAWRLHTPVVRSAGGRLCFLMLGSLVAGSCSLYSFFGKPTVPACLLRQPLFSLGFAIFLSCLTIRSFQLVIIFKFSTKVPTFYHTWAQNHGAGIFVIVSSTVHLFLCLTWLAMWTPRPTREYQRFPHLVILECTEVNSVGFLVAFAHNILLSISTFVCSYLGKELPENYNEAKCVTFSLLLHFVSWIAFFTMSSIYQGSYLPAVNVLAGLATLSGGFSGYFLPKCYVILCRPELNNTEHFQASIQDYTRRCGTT
# T1 sequence (Q925I4 20-843 R175Q/E350G/P352R/G527D): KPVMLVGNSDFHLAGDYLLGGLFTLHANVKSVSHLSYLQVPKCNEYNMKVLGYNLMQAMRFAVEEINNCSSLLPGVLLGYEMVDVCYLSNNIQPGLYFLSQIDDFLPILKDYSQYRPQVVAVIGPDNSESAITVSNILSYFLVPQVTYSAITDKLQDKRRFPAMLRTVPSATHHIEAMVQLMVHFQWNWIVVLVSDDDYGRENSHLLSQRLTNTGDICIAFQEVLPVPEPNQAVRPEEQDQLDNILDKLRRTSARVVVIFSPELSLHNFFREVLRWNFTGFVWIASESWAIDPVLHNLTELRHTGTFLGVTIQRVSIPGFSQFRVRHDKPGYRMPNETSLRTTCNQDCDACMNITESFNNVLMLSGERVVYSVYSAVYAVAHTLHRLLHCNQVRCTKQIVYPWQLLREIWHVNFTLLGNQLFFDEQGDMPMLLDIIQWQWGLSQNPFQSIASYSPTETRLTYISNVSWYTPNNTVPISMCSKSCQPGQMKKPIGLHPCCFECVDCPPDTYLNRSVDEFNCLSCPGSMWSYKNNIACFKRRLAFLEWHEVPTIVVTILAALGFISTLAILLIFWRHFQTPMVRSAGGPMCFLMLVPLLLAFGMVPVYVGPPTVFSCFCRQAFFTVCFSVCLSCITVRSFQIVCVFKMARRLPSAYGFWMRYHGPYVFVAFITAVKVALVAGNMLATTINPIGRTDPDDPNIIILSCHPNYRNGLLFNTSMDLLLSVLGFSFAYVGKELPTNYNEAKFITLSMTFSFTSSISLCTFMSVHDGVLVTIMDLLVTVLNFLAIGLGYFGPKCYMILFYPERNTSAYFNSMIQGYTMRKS
# Experiment: Intracellular calcium ion assay, 293 cells coexpressing G protein α-subunits, T1R1 and T1R2
# Type: cell-based
# Details: 293 cells: T1R1 + T1R2 + G protein α-subunits; 0.67 ml of 1 M saccharide solution added to 2 ml cell suspension; FLUO-4 AM
# Experimental: The coexpression vector for the G protein α-subunit α15 and the G protein α16/Z chimeric protein (hereinafter designated as “G protein α-subunits”) obtained in Example 1-3 was gene transferred to 293 cells, RCB 1637, a human embryonic kidney cell line, available from the Riken Bioresource Center, Ibaraki, Japan, by conventional lipofection. The gene transferred cells were suspended in Dulbecco's Modified Eagle's Medium (D-MEM) supplemented with 1 mg/L of “PUROMYCIN”, a trade mane of puromycin commercialized by Edge Biosystems, MD, USA, and 10% (v/v) of fetal calf serum to give a cell density of 2×10^6 cells/ml and cultured in a plastic petri dish for cell culture. […]
# The captioned reactivity test was conducted according to a conventional intracellular calcium ion assay: 293 Cells prepared in Example 3, capable of coexpressing the G protein α-subunits and the sweet taste receptor(s), were cultured in a plastic petri dish for cell culture until reaching its confluent phase. […] Two milliliters of the resultant cell suspension was injected into a glass cuvette, commercialized by Hitachi, Ltd., Tokyo, Japan, and analyzed on “HITACHI 650-40”, a fluorescence spectrophotometer commercialized by Hitachi, Ltd., Tokyo, Japan. […]
row,Influx of calcium ion,Structure (SMILES)
1,Negative,"OC[C@H]1O[C@@](CO)(O[C@H]2O[C@H](CO)[C@@H](O)[C@H](O)[C@H]2O)[C@@H](O)[C@@H]1O [Sucrose, reference compound]"
2,Negative,OC[C@H]1O[C@H](O[C@H]2O[C@H](CO)[C@@H](O)[C@H](O)[C@H]2O)[C@H](O)[C@@H](O)[C@@H]1O [Trehalose]
